From patent US5386019A, “Synthesis of inhibitors of calmodulin-mediated enzymes including KS-501, KS-502 and their enantiomers” (Yale University, priority 1992, dated 1995)

Experiments:
[1] = test system: Ca++/CaM dependent Kinase II; test: Synapsin I phosphorylation at sites 2,3 by Ca++/Calmodulin kinase (Table I A); format: biochemical; conditions: for Inhibitory activity against CaM-dependent kinases compared with cAMP-dependent kinase or protein kinase C: from data in Table I
[2] = test system: CaM KI; test: Synapsin I phosphorylation at site 1 by Ca++/Calmodulin kinase (Table I A); format: biochemical
[3] = test system: PKC; test: Synapsin I phosphorylation by PKC, Ca++/PSD (Table I B); format: biochemical
Text: (§1) KS-501 & ent-KS-501 as Inhibitors of Ca++/Calmodulin PKC PKA
(§2) The results represent the mean of 3 experiments
Therefore in the reaction of CaMK or PKC, PKA inhibitor is included in th
In vitro PKC is able to phosphorylate Synapsin I at all 3 serine sites.

[4] = test system: cAMP dependent kinase; test: Synapsin I phosphorylation by PKA, cAMP (Table I C); format: biochemical
Text: as §1, §2
Site 1 is phosphorylated by both CaM KI and cAMP dependent kinase.
reaction mix. And in the reaction of PKA, EGTA is included.

[5] = test system: Ca2+/CaM-sensitive phosphodiesterase; test: Inhibition of Ca2+/CaM-sensitive phosphodiesterase (FIGS. 1-4); format: biochemical; conditions: for Inhibitory effects on CaM-mediated enzyme activity: enantiomers compared with KS-501 and KS-502
Text: FIG. 1 is a graph showing the effect of various concentrations of KS-501 on the activity of Ca^2+ /CaM-dependent phosphodiesterase.
FIG. 2 is a graph showing the effect of various concentrations of ent-KS-501 on the activity of Ca^2+ /CaM-dependent phosphodiesterase.
FIG. 3 is a graph showing the effect of various concentrations of KS-502 on the activity of Ca^2+ /CaM-dependent phosphodiesterase.
FIG. 4 is a graph showing the effect of various concentrations of ent-KS-502 on the activity of Ca^2+ /CaM-dependent phosphodiesterase.

[6] = test system: CaM-PDE; conditions: background, cited from earlier work; for Concentration range inhibiting CaM-dependent activities of CaM-PDE: Nakanishi et al.
[7] = test system: protein kinase C; conditions: background; cited from earlier work
[8] = Basal, compound 10 μM, basal control 0.016, mean of 3 experiments
[9] = Basal, compound 40 μM, basal control 0.016
[10] = Ca++/CaM, compound 10 μM, Ca++ CaM 3 μg control 0.125
[11] = Ca++/CaM, compound 40 μM, Ca++ CaM 3 μg control 0.125
[12] = Basal, compound 10 μM, basal control 0.022
[13] = Basal, compound 40 μM, basal control 0.022
[14] = Ca++/CaM, compound 10 μM, Ca++ CaM 3 μg control 0.049
[15] = Ca++/CaM, compound 40 μM, Ca++ CaM 3 μg control 0.049
[16] = Basal, compound 10 μM, basal control 0.016
[17] = Basal, compound 10 μM, basal control 0.018
[18] = Basal, compound 40 μM, basal control 0.018
[19] = Ca++/PSD, compound 10 μM, Ca++ PSD control 0.045
[20] = Ca++/PSD, compound 10 μM, Ca++ PSD control 0.079
[21] = Ca++/PSD, compound 40 μM, Ca++ PSD control 0.045
[22] = Ca++/PSD, compound 40 μM, Ca++ PSD control 0.079
[23] = Basal, compound 10 μM, basal control 0.007
[24] = Basal, compound 10 μM, basal control 0.028
[25] = Basal, compound 40 μM, basal control 0.007
[26] = Basal, compound 40 μM, basal control 0.028
[27] = cAMP, compound 10 μM, cAMP 1 μM control 0.008
[28] = cAMP, compound 10 μM, cAMP 1 μM control 0.041
[29] = cAMP, compound 40 μM, cAMP 1 μM control 0.008
[30] = cAMP, compound 40 μM, cAMP 1 μM control 0.041

Row | Concentration range inhibitory of CaM-sensitive Kinase II [1] [µM] | Phosphorylation of Synapsin I site 2,3 [1, 8] [pmole/mg protein/min] | Phosphorylation of Synapsin I site 2,3 [1, 9] [pmole/mg protein/min] | Phosphorylation of Synapsin I site 2,3 [1, 10] [pmole/mg protein/min] | Phosphorylation of Synapsin I site 2,3 [1, 11] [pmole/mg protein/min] | Phosphorylation of Synapsin I site 1 [2, 12] [pmole/mg protein/min] | Phosphorylation of Synapsin I site 1 [2, 13] [pmole/mg protein/min] | Phosphorylation of Synapsin I site 1 [2, 14] [pmole/mg protein/min] | Phosphorylation of Synapsin I site 1 [2, 15] [pmole/mg protein/min] | Phosphorylation of Synapsin I site 2,3 [4, 23] [pmole/mg protein/min] | Concentration range inhibitory of Ca2+/CaM-sensitive phosphodiesterase [5] | Compound | Inhibitory activity against CaM-dependent kinases compared with cAMP-dependent kinase or protein kinase C [1] | Phosphorylation of Synapsin I site 2,3 [3, 16] [pmole/mg protein/min] | Phosphorylation of Synapsin I site 1 [3, 17] [pmole/mg protein/min] | Phosphorylation of Synapsin I site 2,3 [3, 9] [pmole/mg protein/min] | Phosphorylation of Synapsin I site 1 [3, 18] [pmole/mg protein/min] | Phosphorylation of Synapsin I site 1 [3, 19] [pmole/mg protein/min] | Phosphorylation of Synapsin I site 2,3 [3, 20] [pmole/mg protein/min] | Phosphorylation of Synapsin I site 1 [3, 21] [pmole/mg protein/min] | Phosphorylation of Synapsin I site 2,3 [3, 22] [pmole/mg protein/min] | further results
1 | 10 to 40 | 0.017 | 0.015 | 0.087 | 0.012 | 0.025 | 0.017 | 0.054 | 0.011 | 0.008 | 1 to 2 µM | CCCCCCCc1cc(O)cc(OC(=O)c2c(CCCCCCC)cc(O)cc2O[C@@H]2O[C@@H]([C@H](O)CO)[C@H](O)[C@H]2O)c1 [KS-501] | more inhibitory activity against CaM-dependent kinases than against cAMP-dependent kinase or protein kinase C | 0.015 | 0.020 | 0.015 | 0.016 | 0.041 | 0.061 | 0.017 | 0.030 | Phosphorylation of Synapsin I site 1 [4, 24]: 0.033 pmole/mg protein/min; Phosphorylation of Synapsin I site 2,3 [4, 25]: 0.007 pmole/mg protein/min; Phosphorylation of Synapsin I site 1 [4, 26]: 0.015 pmole/mg protein/min; Phosphorylation of Synapsin I site 2,3 [4, 27]: 0.008 pmole/mg protein/min; Phosphorylation of Synapsin I site 1 [4, 28]: 0.049 pmole/mg protein/min; Phosphorylation of Synapsin I site 2,3 [4, 29]: 0.009 pmole/mg protein/min; Phosphorylation of Synapsin I site 1 [4, 30]: 0.025 pmole/mg protein/min; Concentration range inhibiting CaM-dependent activities of CaM-PDE [6]: 1 to 5 µM; Concentrations required to inhibit CaM-independent activities [6]: Much higher concentrations; Effect on protein kinase C [7]: no effect
2 |  |  |  |  |  |  |  |  |  |  | approximately 10 μM | CCCCCCCc1cc(OC(=O)c2c(CCCCCCC)cc(O)cc2O[C@@H]2O[C@@H]([C@H](O)CO)[C@H](O)[C@H]2O)cc(O)c1C(=O)O [KS-502] |  |  |  |  |  |  |  |  |  | Concentration range inhibiting CaM-dependent activities of CaM-PDE [6]: 1 to 5 µM; Concentrations required to inhibit CaM-independent activities [6]: Much higher concentrations; Effect on protein kinase C [7]: no effect
3 | 10 to 40 | 0.018 | 0.018 | 0.076 | 0.021 | 0.023 | 0.019 | 0.043 | 0.012 | 0.006 | 1 to 2 µM | CCCCCCCc1cc(O)cc(OC(=O)c2c(CCCCCCC)cc(O)cc2O[C@H]2O[C@H]([C@@H](O)CO)[C@@H](O)[C@@H]2O)c1 [ent-KS-501] | more inhibitory activity against CaM-dependent kinases than against cAMP-dependent kinase or protein kinase C | 0.015 | 0.018 | 0.014 | 0.013 | 0.047 | 0.067 | 0.01 | 0.02 | Phosphorylation of Synapsin I site 1 [4, 24]: 0.025 pmole/mg protein/min; Phosphorylation of Synapsin I site 2,3 [4, 25]: 0.010 pmole/mg protein/min; Phosphorylation of Synapsin I site 1 [4, 26]: 0.017 pmole/mg protein/min; Phosphorylation of Synapsin I site 2,3 [4, 27]: 0.009 pmole/mg protein/min; Phosphorylation of Synapsin I site 1 [4, 28]: 0.049 pmole/mg protein/min; Phosphorylation of Synapsin I site 2,3 [4, 29]: 0.008 pmole/mg protein/min; Phosphorylation of Synapsin I site 1 [4, 30]: 0.03 pmole/mg protein/min; Inhibitory effects on CaM-mediated enzyme activity [5]: possess inhibitory activity
4 |  |  |  |  |  |  |  |  |  |  | approximately 10 μM | CCCCCCCc1cc(OC(=O)c2c(CCCCCCC)cc(O)cc2O[C@H]2O[C@H]([C@@H](O)CO)[C@@H](O)[C@@H]2O)cc(O)c1C(=O)O [ent-KS-502] |  |  |  |  |  |  |  |  |  | Inhibitory effects on CaM-mediated enzyme activity [5]: possess inhibitory activity
